Results taken from PMC5228037, “Discovery and Mechanistic Characterization of Selective Inhibitors of H2S-producing Enzyme: 3-Mercaptopyruvate Sulfurtransferase (3MST) Targeting Active-site Cysteine Persulfide” (Scientific Reports, 2017).

Legend:
[1] = target: T1, recombinant purified m3MST (Mus musculus, UniProt Q99J99); test: Inhibitory activity toward purified m3MST by gas chromatography; assay type: biochemical; conditions: 10 μM compound; 50 μM 3MP, 40 μM DTT; room temperature 3 hr; mean±S.D. n = 2; read-out: Inhibitory activity toward recombinant purified m3MST (H2S production by gas chromatography)
T1 construct: made in house; host or cells: E. coli BL21
T1 sequence (Q99J99 1-297): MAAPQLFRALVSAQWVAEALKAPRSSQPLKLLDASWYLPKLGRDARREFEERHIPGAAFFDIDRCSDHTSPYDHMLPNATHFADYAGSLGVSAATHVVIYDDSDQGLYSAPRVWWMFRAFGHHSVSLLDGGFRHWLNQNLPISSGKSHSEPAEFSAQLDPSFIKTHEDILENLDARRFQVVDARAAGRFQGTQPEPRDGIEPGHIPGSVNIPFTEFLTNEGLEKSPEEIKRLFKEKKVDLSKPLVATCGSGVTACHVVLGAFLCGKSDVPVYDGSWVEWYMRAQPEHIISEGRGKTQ
Method: 1 μL of 1 mM compound (final 10 μM) was diluted with 89 μL of 3MST solution (final 3.8 μg/mL) or GST solution (2.2 μg/mL) in 30 mM HEPES buffer (pH 7.4) in a 30 mL collection vial (Iwaki). 10 μL of 3MP and DTT solution (final concentration: 50 μM 3MP and 40 μM DTT) was added to 90 μL of the mixture, then the vial was sealed with parafilm and incubated at room temperature for 3 hr. After addition of 200 μL of 1 M sodium citrate buffer (pH 6.0), the mixture was incubated at 37 °C for at least 10 minutes with shaking on rotary shaker to quench the enzymatic activity and facilitate release of H2S gas from the aqueous phase. A 2 mL sample of head-space gas (total, approximately 29.5 mL) was applied to a gas chromatograph (ODSA-P2, Alpha M.O.S. Japan). The concentrations of H2S were determined from a standard curve obtained with 0 to 4 nmol of Na2S, which is a source of H2S. The protocol is illustrated in Supplementary Fig. 9.
Compound Inhibitory activity
All data are presented as the mean±S.D. (n = 2).
Supplementary Figure S9. (a) Schematic illustration of 3MST inhibitor assay by gas chromatography. (b) Inhibitory activity toward recombinant purified m3MST. Conditions: Mixtures of 10 μM test compound, 3.8 μg/mL 3MST or 2.2 μg/mL GST, 50 μM 3MP, 40 μM DTT, and 1% (v/v) DMSO in 30 mM HEPES buffer (pH 7.4) were incubated at room temperature for 3 hr.
(1 picture or pasted object on this page, not shown here)

[2] = target: T2, GST-fused m3MST (GST-3MST) (Mus musculus, UniProt Q99J99); test: 3MST inhibitor screening with H2S fluorescent probe HSip-1 (confirmation test, titration test); assay type: biochemical; conditions: HSip-1 fluorescence, room temperature 3 hr; for inhibition at 10 µM: 10 μM compound, 50 μM 3MP, 40 μM DTT, mean±S.D. n = 4; for IC50: 0.25, 1, 3, 10, 30 μM compound, 3MP and DTT, read-out: IC50 of 3MST inhibition (titration test)
T2 construct: made in house; host or cells: E. coli BL21
T2 sequence (Q99J99 1-297): T1 sequence (Q99J99 1-297)

[3] = Reactivity test toward H2S (3rd screening, cysteine-activated H2S donor); conditions: 40 μM H2S donor, 1 mM L-cysteine, 37 °C 60 min, mean±S.D. n = 4
Method: Reactivity of the hit compounds toward H2S was next examined. The final concentration of the compounds was 10 or 30 μM. The assay protocol was as follows. Compounds were diluted with HSip-1 and cysteine-activated H2S donor[22] solution to 20 or 60 μM solution (15.4% DMSO) with a Multi-Drop and a pipette. Next, 2 mM L-cysteine solution (10 μL, final concentration: 1 mM L-cysteine) was dispensed into the plates (total volume was 20 μL, DMSO 7.7%), and the plates were incubated at 37 °C for 1 hr. The fluorescence of HSip-1 was measured (λex = 490 nm, λem = 510 nm) with a microplate reader. Background control wells (i.e., no addition wells instead of addition of the cysteine-activated H2S donor, n = 16) were also prepared for all plates.
Supplementary Table S2. Inhibition (%) of fluorescence increase caused by H2S in the 3rd […]
Compound 10 µM Compound 30 µM Compound 10 µM Compound 30 µM
All data are presented as the mean±S.D. (n = 4). Conditions: Mixtures of 1 μM HSip-1, 10 or 30 μM test compound, 40 μM H2S donor, 1 mM ʟ-cysteine, and 7.7% DMSO (v/v) were incubated at 37 °C for 60 min. The control with DMSO alone instead of DMSO solution of test compound was taken as 0% inhibition, and the sample without H2S donor was taken as 100% inhibition. […]
directly react with H2S: For this assay, we synthesized a reported small-molecular H2S donorS2 that produces H2S by reacting with cysteine. Each compound (10 or 30 μM) was dissolved in a solution (30 mM HEPES buffer (pH 7.4)) containing 1 μM HSip-1, 40 μM H2S donor, 1 mM ʟ-cysteine and 7.7% (v/v) DMSO as a cosolvent, and the solution was incubated at 37 °C for 60 min. Then, the fluorescence intensities were measured to evaluate the amount of H2S in the solution […]

SMILES: Cc1cc(=O)[nH]c(SCC(=O)c2cccc3ccccc23)n1 [compound 3]
- inhibition at 10 µM [1]: 90.3 ± 12%
- inhibition at 10 µM [2]: 102 ± 2.9%
- IC50 [2]: 2.7 µM
- Inhibition (%) of fluorescence increase caused by H2S in the 3rd screening ([3]; 10 μM compound): -3.2±5.0%
- Inhibition (%) of fluorescence increase caused by H2S in the 3rd screening ([3]; 30 μM compound): -3.5±3.9%

SMILES: Cc1sc2nc(SCC(=O)c3ccc(O)cc3O)[nH]c(=O)c2c1C [compound 2]
- inhibition at 10 µM [1]: 93.4 ± 0.8%
- inhibition at 10 µM [2]: 81.7 ± 2.5%
- IC50 [2]: 6.3 µM
- Inhibition (%) of fluorescence increase caused by H2S in the 3rd screening ([3]; 10 μM compound): 6.5±1.8%
- Inhibition (%) of fluorescence increase caused by H2S in the 3rd screening ([3]; 30 μM compound): 19.6±15.3%

SMILES: O=C(O)c1cccc(NS(=O)(=O)c2ccccc2)c1 [compound 5]
- inhibition at 10 µM [1]: 90.9 ± 0.9%
- inhibition at 10 µM [2]: 95.5 ± 3.4%
- IC50 [2]: 5.7 µM
- Inhibition (%) of fluorescence increase caused by H2S in the 3rd screening ([3]; 10 μM compound): 2.5±4.5%
- Inhibition (%) of fluorescence increase caused by H2S in the 3rd screening ([3]; 30 μM compound): -1.2±16.3%

SMILES: NC(=O)c1ccsc1NC(=O)CSc1nc2ccccc2c(=O)[nH]1 [compound 1]
- inhibition at 10 µM [1]: 104 ± 2.7%
- inhibition at 10 µM [2]: 102.8 ± 0.2%
- IC50 [2]: 1.7 µM
- Inhibition (%) of fluorescence increase caused by H2S in the 3rd screening ([3]; 10 μM compound): 0.2±3.5%
- Inhibition (%) of fluorescence increase caused by H2S in the 3rd screening ([3]; 30 μM compound): 1.0±2.4%
